From PubChem BioAssay (NCI) come the findings set out here.

The structures appear in SMILES notation.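 48-hour exposure; five concentrations; linearly interpolated endpoints. Abbreviation: GI50, concentration required for 50% inhibition of growth. TGI: concentration producing complete growth inhibition.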

Some test systems named below: DMS 114 small cell lung; RPMI-8226 leukemia; CAKI-1 renal; M19-MEL melanoma; SF-539 CNS; OVCAR-8 ovarian; ACHN renal; KM12 colon; SK-MEL-5 melanoma; NCI/ADR-RES ovarian.
Common to all, as to assay: growth of human tumour cells (NCI), 48 h

In the case of `CCc1cccc(C)c1NC(=O)C1=C(C)NC(C)=C(C(=O)Nc2c(C)cccc2CC)C1c1ccc2c(c1)OCO2`, the TGI in the assay with DMS 114 small cell lung is 38.7 µM; in the assay with RPMI-8226 leukemia, 47.2 µM; with CAKI-1 renal it was 39.4 µM; with M19-MEL melanoma it was 45.6 µM; in the assay with SF-539 CNS, 38.6 µM; with OVCAR-8 ovarian it was more than 100 µM. The figures for the TGI in the assay with ACHN renal, with KM12 colon and in the assay with SK-MEL-5 melanoma were 29.6 µM, 30.9 µM and 31.9 µM, respectively.

With `COc1cccc(NC(=O)CC(=O)N2N=C(n3ccc4ccccc43)CC2c2ccccc2)c1` (stereo not drawn), the TGI in the assay with DMS 114 small cell lung, in the assay with RPMI-8226 leukemia, in the assay with M19-MEL melanoma, in the assay on SF-539 CNS, in the assay with OVCAR-8 ovarian and in the assay on ACHN renal was more than 100 µM in each case. This molecule also showed a TGI with KM12 colon of more than 100 µM.

For the molecule `CC(=O)O[C@H]1CCC2[C@@H]3CCC4c5nonc5CC[C@]4(C)C3CC[C@@]21C` (stereo partly drawn), the GI50 in the assay on DMS 114 small cell lung was more than 100 µM; in the assay with M19-MEL melanoma, more than 100 µM; in the assay with ACHN renal it was more than 10 µM; in the assay with KM12 colon, more than 100 µM. Moreover, the TGI in the assay on DMS 114 small cell lung is more than 100 µM; in the assay on CAKI-1 renal it was more than 10 µM; with M19-MEL melanoma, more than 100 µM; in the assay with SF-539 CNS it was more than 10 µM; in the assay on OVCAR-8 ovarian, more than 10 µM; in the assay with ACHN renal it was more than 100 µM. For the same molecule, the TGI with KM12 colon was more than 100 µM; in the assay on SK-MEL-5 melanoma, more than 10 µM.

As to `Nc1nc(-c2ccco2)cc(-c2ccc(CO)o2)n1`, the TGI in the assay on DMS 114 small cell lung, in the assay with RPMI-8226 leukemia, in the assay on M19-MEL melanoma, with SF-539 CNS, with OVCAR-8 ovarian and in the assay on ACHN renal was more than 100 µM in each case. Also, the TGI in the assay with KM12 colon and in the assay on SK-MEL-5 melanoma was more than 100 µM in each case.

For the molecule `NC(=O)NC12CC3CC(CC(F)(C3)C1)C2`, the TGI with DMS 114 small cell lung, with RPMI-8226 leukemia, in the assay with M19-MEL melanoma, in the assay on SF-539 CNS, in the assay with OVCAR-8 ovarian and in the assay on ACHN renal was more than 100 µM in each case. Also, the TGI in the assay on KM12 colon is more than 100 µM.

In the case of `COc1ccccc1CNCCCN1C(=O)c2ccc3c4c(ccc(c24)C1=O)C(=O)N(CCCN)C3=O`, the GI50 was 1.36 µM in the assay on RPMI-8226 leukemia; 1.76 µM in the assay with CAKI-1 renal; 2.86 µM in the assay on NCI/ADR-RES ovarian; 1.21 µM in the assay on SF-539 CNS; 0.49 µM with OVCAR-8 ovarian; 1.58 µM in the assay on ACHN renal. The GI50 with KM12 colon was 1.69 µM; in the assay with SK-MEL-5 melanoma, 0.262 µM. Besides, the TGI in the assay with RPMI-8226 leukemia came out at 4.52 µM; in the assay on CAKI-1 renal it was 4.73 µM; in the assay with NCI/ADR-RES ovarian, 9.6 µM; in the assay on SF-539 CNS, 2.5 µM; in the assay on OVCAR-8 ovarian it was 3.81 µM; in the assay on ACHN renal, 4.51 µM. For the same molecule, the TGI with KM12 colon stood at 3.25 µM; in the assay on SK-MEL-5 melanoma, 0.899 µM.

On to `O=S(=O)(/C=C/CS(=O)(=O)c1ccccc1)c1ccccc1`, for which the TGI in the assay on DMS 114 small cell lung is 52 µM; in the assay with RPMI-8226 leukemia it was 95.7 µM; with M19-MEL melanoma, more than 100 µM; in the assay on SF-539 CNS, 43.6 µM; in the assay on OVCAR-8 ovarian, 32.5 µM; in the assay with ACHN renal it was more than 100 µM. The TGI with KM12 colon was 32.3 µM; in the assay with SK-MEL-5 melanoma, more than 100 µM.

Regarding `Cc1ccc(-c2nc3nc(-c4ccccc4)nc(N4CCNCC4)c3o2)cc1`, the GI50 in the assay on RPMI-8226 leukemia is 0.232 µM; in the assay with CAKI-1 renal it was 1.53 µM; in the assay on NCI/ADR-RES ovarian it was 0.776 µM; in the assay on SF-539 CNS it was 0.703 µM; in the assay with OVCAR-8 ovarian, 0.366 µM; in the assay with ACHN renal it was 0.495 µM. Also, the GI50 is 0.345 µM in the assay with KM12 colon and 1.65 µM in the assay with SK-MEL-5 melanoma. Moreover, the TGI stood at 0.571 µM in the assay with RPMI-8226 leukemia; 2.95 µM in the assay on CAKI-1 renal; 2.21 µM in the assay on NCI/ADR-RES ovarian; 1.85 µM in the assay with SF-539 CNS; 1.19 µM with OVCAR-8 ovarian; 1.07 µM in the assay with ACHN renal. The TGI came out at 1.36 µM in the assay with KM12 colon and 3.04 µM with SK-MEL-5 melanoma.

As for `O=C1C(SCCO)=C(SCCO)C(=O)N1c1ccc(-c2ccccc2)cc1`, the GI50 is 0.845 µM in the assay on RPMI-8226 leukemia; 0.644 µM in the assay with CAKI-1 renal; 3.54 µM with NCI/ADR-RES ovarian; 1.78 µM in the assay on SF-539 CNS; 2 µM in the assay with OVCAR-8 ovarian; 1.68 µM with ACHN renal. The GI50 was 7.55 µM in the assay with KM12 colon and 9.46 µM in the assay with SK-MEL-5 melanoma. Besides, the TGI was found to be 4.6 µM in the assay with RPMI-8226 leukemia; 1.79 µM in the assay on CAKI-1 renal; 16.2 µM in the assay on NCI/ADR-RES ovarian; 3.92 µM in the assay with SF-539 CNS; 5.82 µM in the assay with OVCAR-8 ovarian; 3.11 µM in the assay on ACHN renal. Also, the TGI in the assay with KM12 colon worked out at 20.8 µM; in the assay with SK-MEL-5 melanoma it was 24.6 µM.

On to `O=C(N/C(=C\c1ccc(/C=C(\NC(=O)c2ccccc2)c2nc3ccccc3[nH]2)cc1)c1nc2ccccc2[nH]1)c1ccccc1`, for which the TGI with DMS 114 small cell lung, in the assay on RPMI-8226 leukemia, in the assay on CAKI-1 renal, in the assay with M19-MEL melanoma, in the assay with SF-539 CNS and in the assay with OVCAR-8 ovarian was more than 100 µM in each case. Further, the TGI in the assay with ACHN renal and in the assay on SK-MEL-5 melanoma was more than 100 µM throughout.

As to `OCCn1cnc2c(SCc3ccccc3)ncnc21`, the TGI with RPMI-8226 leukemia, in the assay on CAKI-1 renal, in the assay on NCI/ADR-RES ovarian, in the assay with SF-539 CNS, in the assay on OVCAR-8 ovarian and in the assay with ACHN renal was more than 100 µM throughout. Moreover, the TGI in the assay with KM12 colon and in the assay on SK-MEL-5 melanoma was more than 100 µM each time.

Consider `CN(C)CC1CCC2=C(C1=O)C(c1ccc(Cl)c(Cl)c1)C1=C(CCC(CN(C)C)C1=O)O2` (stereo not drawn), for which the GI50 with RPMI-8226 leukemia is 0.389 µM; with CAKI-1 renal, 1.58 µM; in the assay with NCI/ADR-RES ovarian, 19.4 µM; in the assay with SF-539 CNS, 6.01 µM; in the assay with OVCAR-8 ovarian it was 4.25 µM; in the assay on ACHN renal, 14.3 µM. The GI50 in the assay with KM12 colon was 2.58 µM; with SK-MEL-5 melanoma, 15.2 µM. Moreover, the TGI is 4.36 µM in the assay on RPMI-8226 leukemia; 3.03 µM in the assay with CAKI-1 renal; 57.4 µM in the assay with NCI/ADR-RES ovarian; 18.2 µM with SF-539 CNS; 16 µM in the assay on OVCAR-8 ovarian; 27.3 µM in the assay on ACHN renal. Moreover, the TGI in the assay with KM12 colon is 8.85 µM; in the assay with SK-MEL-5 melanoma, 29 µM.

For the molecule `O=C(O)C(CS)NCc1c2ccccc2nc2ccccc12` (stereo not drawn), the TGI was 70.3 µM in the assay on RPMI-8226 leukemia; more than 100 µM with CAKI-1 renal; 89.4 µM in the assay with M19-MEL melanoma; more than 100 µM in the assay with SF-539 CNS; more than 100 µM in the assay with OVCAR-8 ovarian; more than 100 µM with ACHN renal. Besides, the TGI with KM12 colon was more than 100 µM.
